Data reported in PMC8238522 (Biochemical Journal, 2021).

How the values were obtained:
Experiment in all cases: spectrophotometric NADH formation at […] nm, Hill fit
Type in all cases: biochemical
AmtriPGDH1 = biological target: T1, AmtriPGDH1 (Amborella trichopoda, UniProt U5D351)
T1 sequence (U5D351 73-618): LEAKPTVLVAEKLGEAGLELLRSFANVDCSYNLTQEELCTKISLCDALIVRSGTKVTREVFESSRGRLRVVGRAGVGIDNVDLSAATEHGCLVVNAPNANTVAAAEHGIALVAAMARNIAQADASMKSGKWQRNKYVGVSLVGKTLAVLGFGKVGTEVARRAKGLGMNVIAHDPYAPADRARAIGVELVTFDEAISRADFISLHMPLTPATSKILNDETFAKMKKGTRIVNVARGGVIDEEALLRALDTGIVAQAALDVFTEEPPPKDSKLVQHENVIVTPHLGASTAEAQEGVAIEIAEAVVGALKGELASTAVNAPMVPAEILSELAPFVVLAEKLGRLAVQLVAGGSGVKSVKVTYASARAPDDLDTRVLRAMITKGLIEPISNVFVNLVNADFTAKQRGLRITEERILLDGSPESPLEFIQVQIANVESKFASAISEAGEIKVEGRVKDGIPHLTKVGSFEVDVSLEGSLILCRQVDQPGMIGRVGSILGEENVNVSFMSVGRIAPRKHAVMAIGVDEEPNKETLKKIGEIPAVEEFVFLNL

OsPGDH1 = biological target: T2, OsPGDH1 (Oryza sativa, UniProt B7F6I8)
T2 sequence (B7F6I8 68-613): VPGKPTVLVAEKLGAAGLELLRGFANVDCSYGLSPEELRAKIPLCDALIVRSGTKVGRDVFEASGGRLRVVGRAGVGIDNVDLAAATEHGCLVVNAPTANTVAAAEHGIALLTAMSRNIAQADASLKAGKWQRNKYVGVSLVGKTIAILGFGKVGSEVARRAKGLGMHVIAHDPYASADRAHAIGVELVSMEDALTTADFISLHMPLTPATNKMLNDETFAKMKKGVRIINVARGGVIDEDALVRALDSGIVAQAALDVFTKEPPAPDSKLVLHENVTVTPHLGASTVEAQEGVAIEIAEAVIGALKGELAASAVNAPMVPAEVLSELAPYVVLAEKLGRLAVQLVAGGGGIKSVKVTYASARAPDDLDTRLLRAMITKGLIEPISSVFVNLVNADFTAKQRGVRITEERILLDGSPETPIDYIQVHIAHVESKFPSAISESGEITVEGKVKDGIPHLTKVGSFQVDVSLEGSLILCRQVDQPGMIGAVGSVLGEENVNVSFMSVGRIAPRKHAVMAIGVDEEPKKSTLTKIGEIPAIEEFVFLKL

OsPGDH2 = biological target: T3, OsPGDH2 (Oryza sativa, UniProt B7FAD2)
T3 sequence (B7FAD2 64-621): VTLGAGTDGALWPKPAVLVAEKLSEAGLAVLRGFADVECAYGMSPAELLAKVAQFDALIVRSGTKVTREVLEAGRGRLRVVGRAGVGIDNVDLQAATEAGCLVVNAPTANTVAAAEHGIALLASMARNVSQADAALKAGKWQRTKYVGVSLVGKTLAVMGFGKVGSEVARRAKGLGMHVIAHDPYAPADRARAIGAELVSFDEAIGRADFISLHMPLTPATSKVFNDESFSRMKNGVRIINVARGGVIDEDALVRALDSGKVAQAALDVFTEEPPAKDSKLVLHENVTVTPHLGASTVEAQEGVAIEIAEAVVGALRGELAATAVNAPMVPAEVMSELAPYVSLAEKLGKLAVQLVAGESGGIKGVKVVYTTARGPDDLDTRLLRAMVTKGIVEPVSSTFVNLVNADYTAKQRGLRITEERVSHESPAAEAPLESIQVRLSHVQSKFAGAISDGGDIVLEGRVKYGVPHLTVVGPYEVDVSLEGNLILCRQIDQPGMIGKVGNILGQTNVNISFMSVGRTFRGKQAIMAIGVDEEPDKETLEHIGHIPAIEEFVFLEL

## N[C@@H](CCS)C(=O)O [L-Homocysteine]
AmtriPGDH1
  EC50: 20 ± 2 µM
OsPGDH1
  EC50: 33 ± 3 µM

## N[C@@H](CO)C(=O)O [L-Serine]
AmtriPGDH1
  EC50: 1200 ± 100 µM
OsPGDH1
  EC50: 6400 ± 600 µM

## CSCC[C@H](N)C(=O)O [L-Methionine]
AmtriPGDH1
  EC50: 750 ± 50 µM
OsPGDH1
  EC50: 640 ± 30 µM

## C[C@H](N)C(=O)O [L-Alanine]
OsPGDH2
  EC50: 950 ± 40 µM
